Assay results published in ChEMBL document CHEMBL1201862, “PubChem BioAssay data set” (2004).
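A five-concentration, 48-hour dose response in 96-well plates underlies each endpoint, interpolated linearly between surrounding concentrations. GI50 is the concentration that inhibits growth by half.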 Activity calls are given as the source filed them. Cut-off read from the data, not from the text of the source: active = GI50 up to about 1.1 µM and inactive = higher.

What was measured:
Assay in all cases: NCI-60 cell line screen, 48 h
UO-31 = tested on: UO-31
EKVX = tested on: EKVX
A498 = tested on: A498
IGROV-1 = tested on: IGROV-1
Hs-578T = tested on: Hs-578T
SF-295 = tested on: SF-295
U-251 = tested on: U-251
LOX IMVI = tested on: LOX IMVI
OVCAR-5 = tested on: OVCAR-5
NCI-H226 = tested on: NCI-H226
KM12 = tested on: KM12
SR = tested on: SR
SK-MEL-28 = tested on: SK-MEL-28
NCI/ADR-RES = tested on: NCI/ADR-RES
RXF 393 = tested on: RXF 393
SW-620 = tested on: SW-620
MDA-MB-435 = tested on: MDA-MB-435
SNB-75 = tested on: SNB-75
UACC-257 = tested on: UACC-257

Compound	GI50 (UO-31)	GI50 (EKVX)	GI50 (A498)	GI50 (IGROV-1)	GI50 (Hs-578T)	GI50 (SF-295)	GI50 (U-251)	GI50 (LOX IMVI)	GI50 (OVCAR-5)	GI50 (NCI-H226)	GI50 (KM12)	GI50 (SR)	GI50 (SK-MEL-28)	GI50 (NCI/ADR-RES)	GI50 (RXF 393)	GI50 (SW-620)	GI50 (MDA-MB-435)	GI50 (SNB-75)	GI50 (UACC-257)
CNS(=O)(=O)c1ccccc1C(=N)c1ccccc1	> 100 µM (inactive)	> 100 µM (inactive)	> 100 µM (inactive)	> 100 µM (inactive)	> 100 µM (inactive)	> 100 µM (inactive)	> 100 µM (inactive)	> 100 µM (inactive)	> 100 µM (inactive)	> 100 µM (inactive)	> 100 µM (inactive)	> 100 µM (inactive)	> 100 µM (inactive)	> 100 µM (inactive)	> 100 µM (inactive)	> 100 µM (inactive)	> 100 µM (inactive)	56.4 µM (inactive)	
CC#CCCN(CC#N)Cc1ccccc1	> 100 µM (inactive)	> 100 µM (inactive)	20.4 µM (inactive)	> 100 µM (inactive)	> 100 µM (inactive)	> 100 µM (inactive)	> 100 µM (inactive)	> 100 µM (inactive)	> 100 µM (inactive)	> 100 µM (inactive)	> 100 µM (inactive)	> 100 µM (inactive)	> 100 µM (inactive)	> 100 µM (inactive)	> 100 µM (inactive)		> 100 µM (inactive)	> 100 µM (inactive)	> 100 µM (inactive)
O=C(CNc1ccccc1[N+](=O)[O-])Nn1c(-c2ccccc2)nc2ccccc2c1=O	18.7 µM (inactive)	19.6 µM (inactive)	26.2 µM (inactive)	16.3 µM (inactive)	27.4 µM (inactive)	20.6 µM (inactive)	19.2 µM (inactive)	11.2 µM (inactive)	22.3 µM (inactive)	29.2 µM (inactive)	> 10 µM (inactive)	18.2 µM (inactive)	23.5 µM (inactive)	25.7 µM (inactive)	20.1 µM (inactive)	19.1 µM (inactive)	24.5 µM (inactive)	11.3 µM (inactive)	> 10 µM (inactive)
CC1OC(O[C@H]2CC[C@]3(C)[C@H]4CC=C5[C@@H]6[C@@H](C)[C@H](C)CC[C@]6(C(=O)OC6OC(CO)C(O)C(O)C6O)CC[C@@]5(C(=O)O)[C@]4(C)CC[C@H]3C2(C)C)C(O)C(O)C1O (stereo partly drawn)	> 100 µM (inactive)		> 100 µM (inactive)		> 100 µM (inactive)	> 100 µM (inactive)	> 100 µM (inactive)	> 100 µM (inactive)	> 100 µM (inactive)		> 100 µM (inactive)	> 100 µM (inactive)		> 100 µM (inactive)	> 100 µM (inactive)	> 100 µM (inactive)	> 100 µM (inactive)	> 100 µM (inactive)	> 100 µM (inactive)
CC(CCC(=O)O)C(=O)O (stereo not drawn)	> 100 µM (inactive)	> 100 µM (inactive)	> 100 µM (inactive)	> 100 µM (inactive)	> 100 µM (inactive)	> 100 µM (inactive)	> 100 µM (inactive)	> 100 µM (inactive)	> 100 µM (inactive)	> 100 µM (inactive)	> 100 µM (inactive)	> 100 µM (inactive)	> 100 µM (inactive)	> 100 µM (inactive)	> 100 µM (inactive)	> 100 µM (inactive)	> 100 µM (inactive)	> 100 µM (inactive)	> 100 µM (inactive)
CC(C)(C)OC(=O)NC(CCC(=O)OCc1ccccc1)C(=O)NCCCO (stereo not drawn)	> 100 µM (inactive)	> 100 µM (inactive)	> 100 µM (inactive)	> 100 µM (inactive)	> 100 µM (inactive)		> 100 µM (inactive)	> 100 µM (inactive)	> 100 µM (inactive)	> 100 µM (inactive)	> 100 µM (inactive)	> 100 µM (inactive)	> 100 µM (inactive)	> 100 µM (inactive)	> 100 µM (inactive)	> 100 µM (inactive)	> 100 µM (inactive)	> 100 µM (inactive)	> 100 µM (inactive)
O=c1c(=O)c2c(Br)sc(Br)c2c1=O	33 µM (inactive)	20.1 µM (inactive)	> 100 µM (inactive)	18.2 µM (inactive)	31 µM (inactive)	> 100 µM (inactive)	23.6 µM (inactive)	19.7 µM (inactive)	20.3 µM (inactive)	> 100 µM (inactive)	> 100 µM (inactive)	20.6 µM (inactive)	14.7 µM (inactive)	32.7 µM (inactive)	18.7 µM (inactive)	15.8 µM (inactive)	19.1 µM (inactive)	28.9 µM (inactive)	19.5 µM (inactive)
C1COC2SC3=C(SC(=C4SC5=C(SCCS5)S4)S3)SC2O1 (stereo not drawn)	> 100 µM (inactive)	> 100 µM (inactive)	> 100 µM (inactive)	77.6 µM (inactive)	80.9 µM (inactive)	36.7 µM (inactive)	> 100 µM (inactive)		> 100 µM (inactive)	> 100 µM (inactive)	17.4 µM (inactive)	3.68 µM (inactive)	> 100 µM (inactive)	> 100 µM (inactive)	> 100 µM (inactive)	68.7 µM (inactive)	4.07 µM (inactive)	71.1 µM (inactive)	> 100 µM (inactive)
Clc1ccc(C2=NNC(c3cccc(Cl)c3)C2)cc1 (stereo not drawn)	1.9 µM (inactive)	23.4 µM (inactive)	20 µM (inactive)	0.344 µM (active)	28.8 µM (inactive)	29.1 µM (inactive)	16.5 µM (inactive)	16 µM (inactive)	44.8 µM (inactive)	35.6 µM (inactive)	35.9 µM (inactive)	41.9 µM (inactive)		26.5 µM (inactive)	31.3 µM (inactive)	23.2 µM (inactive)	17.9 µM (inactive)	26.8 µM (inactive)	32.3 µM (inactive)
[O-][n+]1cc(SCc2ccccc2)ncc1SCc1ccccc1	> 10 µM (inactive)	> 10 µM (inactive)	> 10 µM (inactive)	> 10 µM (inactive)	> 10 µM (inactive)	> 10 µM (inactive)	> 10 µM (inactive)	> 10 µM (inactive)	> 10 µM (inactive)	> 10 µM (inactive)	> 10 µM (inactive)	> 10 µM (inactive)	> 10 µM (inactive)	> 10 µM (inactive)	> 10 µM (inactive)		> 10 µM (inactive)	> 10 µM (inactive)	> 10 µM (inactive)
O=C(C1=CCC2(CC1)OCCO2)N(Cc1ccccc1)c1ccccc1I	17.6 µM (inactive)	16.4 µM (inactive)	22.5 µM (inactive)		0.181 µM (active)	21.4 µM (inactive)	19.9 µM (inactive)	21.2 µM (inactive)	18.1 µM (inactive)	19.9 µM (inactive)	14.1 µM (inactive)	12.8 µM (inactive)	21.2 µM (inactive)	15 µM (inactive)	28.3 µM (inactive)	29.7 µM (inactive)	19.7 µM (inactive)	14.1 µM (inactive)	19.2 µM (inactive)
